According to patent publication US5468757A, “6-azaindole thromboxane synthase inhibitors” (Eli Lilly and Company, priority 1994, dated 1995):

Tests used:
thromboxane synthase [1] = target: T1, thromboxane synthase (Homo sapiens, UniProt P24557); assay: Thromboxane Synthase Inhibition (TSI) Assay: serum TXB2 by radioimmunoassay in whole human blood; type: cell-based; conditions: for Serum TXB2: mean ± SE, n = 3, vehicle 375
T1 construct: incubated with fresh whole human blood that had been anticoagulated with 0.38% trisodium citrate; from tissue; host or cells: fresh whole human blood (citrated, recalcified)
T1 sequence (P24557 1-533): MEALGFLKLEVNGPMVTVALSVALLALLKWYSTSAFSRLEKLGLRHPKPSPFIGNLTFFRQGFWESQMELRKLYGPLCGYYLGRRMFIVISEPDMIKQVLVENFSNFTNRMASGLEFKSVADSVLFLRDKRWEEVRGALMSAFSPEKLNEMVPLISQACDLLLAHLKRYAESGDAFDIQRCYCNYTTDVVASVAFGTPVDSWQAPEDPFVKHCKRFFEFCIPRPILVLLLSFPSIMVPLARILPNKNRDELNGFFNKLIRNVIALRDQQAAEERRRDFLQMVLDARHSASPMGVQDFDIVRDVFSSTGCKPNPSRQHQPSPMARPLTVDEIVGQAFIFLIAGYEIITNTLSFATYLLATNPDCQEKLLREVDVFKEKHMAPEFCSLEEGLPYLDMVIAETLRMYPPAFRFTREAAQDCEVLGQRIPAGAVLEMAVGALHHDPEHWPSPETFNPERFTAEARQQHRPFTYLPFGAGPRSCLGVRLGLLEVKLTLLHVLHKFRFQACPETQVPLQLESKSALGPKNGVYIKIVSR
Protocol: The ability of the compound of the present invention to be an effective thromboxane synthase inhibitor were evaluated in the following Thromboxane Synthase Inhibition (TSI) Assay with the results shown in Table 1 below:
Method for Thromboxane Synthase Inhibition (TSI) Test:
(§1) The test compound - 6-azaindole-1-hexanoic acid (the compound of Example 1, Part D) was dissolved in dimethylsulfoxide at varying concentrations. The compound solutions and dimethylsulfoxide alone (vehicle) were incubated with fresh whole human blood that had been anticoagulated with 0.38% trisodium citrate, for 30 minutes at 37° C. After 30 minutes, 0.025 ml of 0.5 M calcium chloride solution was added to each 1 ml of blood and further incubated for one hour at 37° C. Serum was prepared by centrifugation of the blood at 2000 x g for 15 minutes in a Beckman table top centrifuge. Serum TXB2 and 6-keto-PGF1a, the stable metabolites of and markers of synthesis of TXA2 and prostacyclin respectively, were measured by radioimmunoassay by commonly used test methods (see, Refs.,1 & 2 below). Results from the radioimmunoassay of TXB2 are shown in Table 1 and indicate the dose-dependent potency of the compound of Example 1, Part D as a thromboxane synthase inhibitor.

thromboxane synthase [2] = assay: Oral activity: serum TXB2 in rats one hour after oral dosing; type: in vivo; conditions: blood one hour after dosing, mean ± SE, n = 3, dose 0: 340
Protocol: The oral activity of 6-azaindole-1-hexanoic acid was established by treating rats via the oral route with solutions of the compound and one hour later collecting blood. The blood was allowed to clot in glass tubes for 1 hour at 37° C. Serum was collected after sedimentation of the clot by centrifugation at 2000 x g for 15 minutes in a Beckman table top centrifuge. The levels of TXB2 were measured in the serum by radioimmunoassay. Decreased levels of TXB2 indicate the presence of compound in the blood resulting from oral absorption. The results of these experiments are shown in Table 3 and document the availability of the compound via the oral route of administration and the dose-dependency of the desired inhibitory effect on serum TXB2.

[3] = test system: cyclooxygenase and prostacyclin synthase; assay: Serum 6-keto-PGF1a by radioimmunoassay in whole human blood (specificity of TSI); type: cell-based; conditions: for Serum 6-keto-PGF1a: whole human blood, mean ± SE, n = 3, vehicle 1.6 ± 0.2
Protocol: as §1
Data determined from the radioimmunoassay of serum 6-keto-PGF1a (reflecting prostacyclin generation) allowed a determination of the specificity of 6-azaindole-1-hexanoic acid for the inhibition of thromboxane synthase versus cyclooxygenase and prostacyclin synthase as indicated by the serum levels of 6-keto-PGF1a. These values decrease in the presence of a nonspecific inhibitor (i.e., aspirin) but are unchanged or increased by specific TSI. The data in Table 2 documents the expected dose-dependent stimulatory effect of the compound of 6-azaindole-1-hexanoic acid on human serum 6-keto-PGF1a levels and confirm the specific TSI by 6-azaindole-1-hexanoic acid.

## O=C(O)CCCCCn1ccc2ccncc21 [Example 1 Part D, 6-azaindole-1-hexanoic acid]
Thromboxane synthase [1]; 0.01 μM compound
  Serum TXB2: 235 ng/mL
Thromboxane synthase [1]; 0.1 μM compound
  Serum TXB2: 109 ng/mL
Thromboxane synthase [1]; 1 μM compound
  Serum TXB2: 18.8 ng/mL
Thromboxane synthase [1]; serum TXB2, mean±SE, n=3, read-out: IC50 (concentration required to reduce thromboxane generation to 50% of vehicle)
  IC50: 23 ± 4.1 nM
Thromboxane synthase [2]; 1 mg/kg p.o.
  Serum TXB2: 85.1 ng/mL
Thromboxane synthase [2]; 10 mg/kg p.o.
  Serum TXB2: 18.4 ng/mL
[3]; 0.01 μM compound
  Serum 6-keto-PGF1a: 1.7 ± 0.1 ng/mL
[3]; 0.1 μM compound
  Serum 6-keto-PGF1a: 2.4 ± 0.6 ng/mL
[3]; 1 μM compound
  Serum 6-keto-PGF1a: 2.6 ± 0.7 ng/mL
[3]; judged from human serum 6-keto-PGF1a levels
  Specificity for inhibition of thromboxane synthase versus cyclooxygenase and prostacyclin synthase: specific TSI
